Laboratory results: ChEMBL document CHEMBL3407435, “N-Methyl-N-((1-methyl-5-(3-(1-(2-methylbenzyl)piperidin-4-yl)propoxy)-1H-indol-2-yl)methyl)prop-2-yn-1-amine, a new cholinesterase and monoamine oxidase dual inhibitor” (J Med Chem, 2014)
pIC50: −log10 of the molar value. Calls of active or inactive are those of the source. The rule behind the calls is not given here.

How the values were obtained:
HEK293 = assay: Selectivity ratio of IC50 for recombinant human AChE expressed in HEK293 cells to IC50 for recombinant human BuChE expressed in HEK293 cells; format: cell-based
Homo sapiens = organism: Homo sapiens; assay: Selectivity ratio of IC50 for human MAO-A expressed in baculovirus infected BTI insect cells to IC50 for human MAO-B expressed in baculovirus infected BTI insect cells
[1] = target: T1, Amine oxidase [flavin-containing] A (Homo sapiens, UniProt P21397); assay: Inhibition of human MAO-A expressed in baculovirus infected BTI insect cells preincubated for 15 mins
T1 sequence (P21397 whole entry): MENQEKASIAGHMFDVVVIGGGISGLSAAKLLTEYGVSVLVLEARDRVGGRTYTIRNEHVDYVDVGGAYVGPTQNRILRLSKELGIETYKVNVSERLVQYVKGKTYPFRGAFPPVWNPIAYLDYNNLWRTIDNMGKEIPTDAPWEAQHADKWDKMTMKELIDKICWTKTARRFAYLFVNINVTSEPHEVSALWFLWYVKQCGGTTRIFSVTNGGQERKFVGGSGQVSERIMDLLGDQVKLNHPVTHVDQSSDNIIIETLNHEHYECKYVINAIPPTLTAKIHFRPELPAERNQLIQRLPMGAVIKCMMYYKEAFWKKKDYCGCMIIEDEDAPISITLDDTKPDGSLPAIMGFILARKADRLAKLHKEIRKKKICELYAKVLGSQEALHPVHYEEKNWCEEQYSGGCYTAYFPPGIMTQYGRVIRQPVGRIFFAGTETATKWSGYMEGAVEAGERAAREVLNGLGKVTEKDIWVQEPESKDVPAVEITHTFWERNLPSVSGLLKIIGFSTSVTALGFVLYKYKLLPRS

Acetylcholinesterase [2] = target: T2, Acetylcholinesterase (Homo sapiens, UniProt P22303); assay: Inhibition of recombinant human AChE expressed in HEK293 cells preincubated for 15 mins; format: cell-based
T2 sequence (P22303 whole entry): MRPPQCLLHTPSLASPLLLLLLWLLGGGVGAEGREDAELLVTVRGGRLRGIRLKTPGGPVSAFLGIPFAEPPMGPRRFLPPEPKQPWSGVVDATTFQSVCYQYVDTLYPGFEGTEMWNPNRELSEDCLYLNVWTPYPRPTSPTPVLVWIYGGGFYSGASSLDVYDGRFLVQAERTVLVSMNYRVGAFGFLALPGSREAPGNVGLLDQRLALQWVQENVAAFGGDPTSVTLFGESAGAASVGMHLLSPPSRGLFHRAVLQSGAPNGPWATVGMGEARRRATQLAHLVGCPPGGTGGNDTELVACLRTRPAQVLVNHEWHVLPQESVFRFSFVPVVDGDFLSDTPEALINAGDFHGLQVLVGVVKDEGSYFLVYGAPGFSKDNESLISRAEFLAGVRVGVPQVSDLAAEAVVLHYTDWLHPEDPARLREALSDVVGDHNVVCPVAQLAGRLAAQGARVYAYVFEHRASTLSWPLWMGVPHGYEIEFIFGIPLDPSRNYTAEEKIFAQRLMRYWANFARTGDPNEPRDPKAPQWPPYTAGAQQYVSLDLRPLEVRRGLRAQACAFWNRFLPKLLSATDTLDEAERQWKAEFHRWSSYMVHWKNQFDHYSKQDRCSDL

Cholinesterase [3] = target: T3, Cholinesterase (Homo sapiens, UniProt P06276); assay: Inhibition of recombinant human BuChE expressed in HEK293 cells preincubated for 15 mins; format: cell-based
T3 sequence (P06276 whole entry): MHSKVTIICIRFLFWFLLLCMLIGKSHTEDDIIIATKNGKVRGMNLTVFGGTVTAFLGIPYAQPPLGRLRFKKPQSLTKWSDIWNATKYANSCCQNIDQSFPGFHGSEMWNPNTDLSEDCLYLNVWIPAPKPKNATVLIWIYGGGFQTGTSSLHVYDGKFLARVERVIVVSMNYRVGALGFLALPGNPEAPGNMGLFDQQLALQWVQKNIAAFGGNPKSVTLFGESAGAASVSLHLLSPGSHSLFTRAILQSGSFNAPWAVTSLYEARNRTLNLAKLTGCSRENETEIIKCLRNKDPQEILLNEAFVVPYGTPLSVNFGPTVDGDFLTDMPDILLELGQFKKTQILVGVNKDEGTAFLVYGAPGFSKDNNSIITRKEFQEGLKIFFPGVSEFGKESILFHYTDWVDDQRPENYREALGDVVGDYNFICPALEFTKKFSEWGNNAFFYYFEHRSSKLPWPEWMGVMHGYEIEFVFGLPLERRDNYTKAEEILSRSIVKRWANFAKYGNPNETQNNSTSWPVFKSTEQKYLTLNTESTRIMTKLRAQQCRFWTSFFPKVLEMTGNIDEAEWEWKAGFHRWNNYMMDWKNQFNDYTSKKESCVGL

[4] = target: T4, Amine oxidase [flavin-containing] B (Homo sapiens, UniProt P27338); assay: Inhibition of human MAO-B expressed in baculovirus infected BTI insect cells preincubated for 15 mins; format: cell-based
T4 sequence (P27338 whole entry): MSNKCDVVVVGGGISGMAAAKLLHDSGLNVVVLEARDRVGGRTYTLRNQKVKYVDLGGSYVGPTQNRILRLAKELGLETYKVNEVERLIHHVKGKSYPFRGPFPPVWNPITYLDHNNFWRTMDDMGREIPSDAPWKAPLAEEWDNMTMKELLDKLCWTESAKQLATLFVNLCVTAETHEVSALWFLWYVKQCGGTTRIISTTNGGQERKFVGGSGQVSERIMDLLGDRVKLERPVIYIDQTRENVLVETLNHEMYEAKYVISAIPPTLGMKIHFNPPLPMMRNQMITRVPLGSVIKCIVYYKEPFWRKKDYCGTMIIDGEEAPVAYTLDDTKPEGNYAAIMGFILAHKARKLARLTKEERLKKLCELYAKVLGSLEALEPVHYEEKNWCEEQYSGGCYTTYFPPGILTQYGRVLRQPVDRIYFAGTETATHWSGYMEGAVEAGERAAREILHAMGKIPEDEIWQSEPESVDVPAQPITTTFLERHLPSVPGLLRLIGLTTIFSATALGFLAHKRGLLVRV

Cholinesterase [5] = target: T3, Cholinesterase; assay: Inhibition of recombinant human BuChE expressed in HEK293 cells preincubated at 100 uM for 15 mins; format: cell-based
Acetylcholinesterase [6] = target: T2, Acetylcholinesterase; assay: Inhibition of recombinant human AChE expressed in HEK293 cells preincubated at 100 uM for 15 mins; format: cell-based
[7] = target: T1, Amine oxidase [flavin-containing] A; assay: Inhibition of human MAO-A expressed in baculovirus infected BTI insect cells preincubated at 100 uM for 15 mins
[8] = target: T4, Amine oxidase [flavin-containing] B; assay: Inhibition of human MAO-B expressed in baculovirus infected BTI insect cells preincubated at 100 uM for 15 mins
[9] = Permeability of the compound by PAMPA-BBB method in presence of PBS:ethanol at 70:30 ratio; format: ADME; settings: read-out: permeability
[10] = target: T1, Amine oxidase [flavin-containing] A; assay: Irreversible inhibition of human MAO-A expressed in baculovirus infected BTI insect cells compound incubated at 10 times IC50 for 30 mins followed by 100 fold dilution relative to control; settings: 0.5 h
Acetylcholinesterase [11] = target: T2, Acetylcholinesterase; assay: Inhibition of recombinant human AChE expressed in HEK293 cells assessed as enzyme recovery compound incubated at 10 times IC50 for 30 mins followed by 100 fold dilution relative to control; format: cell-based; set-up: scale not given: the % may be the effect or the level left
[12] = target: T1, Amine oxidase [flavin-containing] A; assay: Reversible inhibition of human MAO-A expressed in baculovirus infected BTI insect cells
Cholinesterase [13] = target: T3, Cholinesterase; assay: Inhibition of recombinant human BuChE expressed in HEK293 cells assessed as enzyme recovery compound incubated at 10 times IC50 for 30 mins followed by 100 fold dilution relative to control; format: cell-based; set-up: scale not given: the % may be the effect or the level left
[14] = target: T4, Amine oxidase [flavin-containing] B; assay: Irreversible inhibition of human MAO-B expressed in baculovirus infected BTI insect cells compound incubated at 10 times IC50 for 30 mins followed by 100 fold dilution relative to control; settings: 0.5 h

SMILES	Ratio IC50 (HEK293)	Ratio IC50 (Homo sapiens)	pIC50 [1]	pIC50 (Acetylcholinesterase [2])	pIC50 (Cholinesterase [3])	pIC50 [4]	further results
C#CCN(C)Cc1cc2cc(OCCCC3CCN(Cc4ccc(OC(=O)N(C)C)c5ncccc45)CC3)ccc2n1C	1.4	1.3	6.59	5.08	5.23	6.71	
C#CCNCc1cc2cc(OCc3ccccc3)ccc2[nH]1		70	6.54			8.39	
C#CCN(C)Cc1ccc(OC(=O)N(C)C)c2ncccc12				6.28	5.10		
OCc1cc2cc(OCCCC3CCN(Cc4ccccc4)CC3)ccc2[nH]1	0.43	0.67	5.04	4.87	4.51	4.87	
C=CCNCc1cc2cc(OCCCC3CCN(Cc4ccccc4)CC3)ccc2[nH]1	0.11	2.1	4.34	5.34	4.39	4.67	
C#CCN(C)Cc1cc2cc(OCCCC3CCN(Cc4ccccc4)CC3)ccc2n1C	1.03	0.05	7.24	5.47	5.48	5.92	
C#CCNCc1cc2cc(OCCCC3CCN(Cc4ccccc4)CC3)ccc2[nH]1	0.67	0.57	4.72	5.31	5.14	4.47	
CCOC(=O)c1cc2cc(OCCCC3CCN(Cc4ccccc4)CC3)ccc2[nH]1	0.99	0.87	6.06	5.02	5.01	6.00	
C#CCN(C)Cc1cc2cc(OCCCC3CCN(Cc4ccccc4)CC3)ccc2[nH]1	2.2	0.26	5.04	4.81	5.15	4.45	
C#CCN(C)Cc1cc2cc(OCc3ccc(OC(=O)N(C)C)c4ncccc34)ccc2n1C			3.51			3.56	inhibition (Cholinesterase [5]): inactive; inhibition (Acetylcholinesterase [6]): inactive
C#CCN(C)Cc1cc2cc(OCCCC3CCN(Cc4ccc(OC)c5ncccc45)CC3)ccc2n1C			4.99			5.10	inhibition at 100 µM [7]: 40%; inhibition at 100 µM [8]: 40%; inhibition (Cholinesterase [5]): inactive
C#CCN(C)Cc1cc2cc(OCc3ccc(OC)c4ncccc34)ccc2[nH]1			3.20			3.78	inhibition (Cholinesterase [5]): inactive; inhibition (Acetylcholinesterase [6]): inactive
C#CCN(C)Cc1cc2cc(OCCCC3CCN(Cc4ccccc4C)CC3)ccc2n1C		0.03		5.55	5.31	6.74	Papp [9]: 14.4 ×10⁻⁶ cm/s; inhibition (INH) [10]: 90%; Activity (Acetylcholinesterase [11]): 20%; pIC50 [12]: 5.20; Activity (Cholinesterase [13]): 20%; inhibition (INH) [14]: 90%
